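GI50 is the concentration that inhibits growth by half. The concentration for full growth arrest is given as TGI.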
Assays:
Assay in all cases: DTP human tumour cell line panel, 384-well format; in the data active means GI50 below about 0.43 µM; inactive means the rest
A549 NSCLC = test system: A549 NSCLC
CAKI-1 renal = test system: CAKI-1 renal
COLO 205 colon = test system: COLO 205 colon
BT-549 breast = test system: BT-549 breast
HCT-116 colon = test system: HCT-116 colon

O=C(O)C1(C(=O)O)CCC1.[NH2-].[NH2-].[Pt+2]
< 10 nM: TGI (A549 NSCLC) | TGI (CAKI-1 renal) | TGI (COLO 205 colon) | TGI (BT-549 breast) | TGI (HCT-116 colon)
inactive: GI50 (A549 NSCLC) < 10 nM | GI50 (CAKI-1 renal) < 10 nM | GI50 (COLO 205 colon) < 10 nM | GI50 (BT-549 breast) < 10 nM | GI50 (HCT-116 colon) < 10 nM

— PubChem BioAssay (NCI)
